Our source for the Emax and inhibition in vivo values is patent publication US10428055B2, “Substituted piperidines having GPR119 agonistic activity” (DONG-A ST CO., LTD., priority 2014, dated 2019).

One assay concerns the target T1, Human GPR119 (Homo sapiens, UniProt Q8TDV5).
T1 construct: host or cells: HEK293 (ATCC)
T1 sequence (Q8TDV5 1-335): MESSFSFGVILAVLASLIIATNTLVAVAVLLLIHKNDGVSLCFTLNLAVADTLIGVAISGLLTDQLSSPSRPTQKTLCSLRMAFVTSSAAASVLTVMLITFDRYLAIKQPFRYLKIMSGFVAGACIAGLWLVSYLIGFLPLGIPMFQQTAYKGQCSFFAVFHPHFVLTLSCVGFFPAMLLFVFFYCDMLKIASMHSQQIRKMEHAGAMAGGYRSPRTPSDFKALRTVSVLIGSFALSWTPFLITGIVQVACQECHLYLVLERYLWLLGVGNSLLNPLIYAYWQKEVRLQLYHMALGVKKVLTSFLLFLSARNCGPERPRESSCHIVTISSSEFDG
Description: Human GPR119 activation assay (cAMP, HTRF). The format is cell-based. The conditions noted are these: 1 h, HEK293 cells transiently expressing human GPR119, relative to maximum effect of OEA, read-out: hGPR119 activation ability (cAMP assay) Relative Response % vs OEA; for Emax at 0.001 µM: 1 nM; for Emax at 0.01 µM: 10 nM. The gist of the method: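 HEK293 cells transiently overexpressing human GPR119 (48 h), pre-treated 10 min then exposed 60 min to compound in KRBH with 11.1 mM glucose, 0.1% BSA and 0.5 mM IBMX. Intracellular cAMP quantified by HTRF; activation expressed as % of maximal oleoylethanolamide effect from multiple-concentration testing.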

For another assay, the system named is C57BL/6 mouse. Description: Assessment of glucose tolerance improvement effect in mouse. The format is in vivo. The following applies: 2 h; 10 mg/kg oral, 30 min before oral glucose 2 g/kg; male C57BL/6 mouse; blood glucose AUC. As to the method:
<Experimental Example 2>Assessment of glucose tolerance improvement effect in mouse
As one of anti-diabetic effect indicators, the glucose tolerance improvement effect of the above compounds was evaluated in 7-week male laboratory mouse (C57BL/6 mouse), as the effect of improving postprandial glycemic control ability.
The laboratory mouse was fasted from the day before the experiment for 16-17 hours. The compound of the present invention was orally administered 30 minutes before administrating glucose, and after 30 minutes, a glucose solution (2 g/kg/10 ml) was orally administered. A drug was prepared by suspending in a 10% Gelucire solution. At the times immediately before drug administration, immediately before glucose solution administration, 15 minutes, 30 minutes, 60 minutes, 90 minutes, and 120 minutes after glucose administration, the whole blood glucose levels was measured from tail vein using a blood glucose meter (AccuChek Active, Roche Diagnostics), and the area under the curve of a temporal blood glucose curve was calculated. From the calculated area under the blood glucose curve, the area under the blood glucose curve of a negative control group to which no glucose solution was administered was subtracted, and inhibitory activity against blood glucose increase of a control group to which only the 10% Gelucire solution and glucose solution were administered was calculated as a percentage, thereby evaluating the glucose tolerance improvement efficacy of a drug.
The results are shown in Table 3, in which the glucose tolerance improvement effect represented at a dose of 10 mg/kg was represented by classifying into three groups, under 30%, more than 30% under 40%, and more than 40%. A significant glucose tolerance improvement effect was identified in 22 compounds on which the experiment was carried out, and among those compounds, 16 compounds represented an excellent in vivo activity of 30% inhibitory dose of 10 mg/kg or less. In the following Table 3, A represents an inhibitory activity more than 40%, B represents an inhibitory activity more than 30% under 40% and C represents an inhibitory activity under 30%.

The structures appear in SMILES notation. A value given as a limit tells only on which side of the number the result lay.

Consider `CCc1cnc(N2CCC(CCCOc3cc(F)c(-c4noc([C@@H](O)CC)n4)c(F)c3)CC2)nc1` [Example 19, (S)-1-(3-(4-(3-(1-(5-ethylpyrimidin-2-yl)piperidin-4-yl)propoxy)-2,6-difluorophenyl)-1,2,4-oxadiazol-5-yl) propan-1-ol], for which, at Human GPR119, the Emax at 0.001 µM is 46.5% and the Emax at 0.01 µM was 313%. In the assay with C57BL/6 mouse, this molecule registered an inhibition in vivo at 10 mg/kg of 30 to 40%.
For `CCc1cnc(N2CCC(CCCOc3cc(F)c(-c4noc(C(C)(C)CO)n4)c(F)c3)CC2)nc1` [Example 22, 2-(3-(4-(3-(1-(5-ethylpyrimidin-2-yl)piperidin-4-yl)propoxy)-2,6-difluorophenyl)-1,2,4-oxadiazol-5-yl)-2-methylpropan-1-ol], on Human GPR119, the Emax at 0.001 µM came to 54.9% and the Emax at 0.01 µM was found to be 178%. Further, the inhibition in vivo at 10 mg/kg in the assay on C57BL/6 mouse fell in the range of 30 to 40%.
On to `CCCc1cnc(N2CCC(CCCOc3cc(F)c(-c4noc(C(C)C)n4)c(F)c3)CC2)nc1` [Example 23, 3-(2,6-difluoro-4-(3-(1-(5-propylpyrimidin-2-yl)piperidin-4-yl)propoxy)phenyl)-5-isopropyl-1,2,4-oxadiazole], for which, at Human GPR119, the Emax at 0.001 µM was 78.3% and the Emax at 0.01 µM worked out at 141%. For the same molecule, in the assay on C57BL/6 mouse, the inhibition in vivo at 10 mg/kg is over 40%.
For `CCCCCc1cnc(N2CCC(CCCOc3cc(F)c(-c4noc(C(C)C)n4)c(F)c3)CC2)nc1` [Example 24, 3-(2,6-difluoro-4-(3-(1-(5-pentylpyrimidin-2-yl)piperidin-4-yl)propoxy)phenyl)-5-isopropyl-1,2,4-oxadiazole] the same measures were 132%, 309% and under 30%.
In the case of `CC(C)c1nc(-c2c(F)cc(OCCCC3CCN(c4ncc(C(F)(F)F)cn4)CC3)cc2F)no1` [Example 25, 3-(2,6-difluoro-4-(3-(1-(5-(trifluoromethyl)pyrimidin-2-yl)piperidin-4-yl)propoxy)phenyl)-5-isopropyl-1,2,4-oxadiazole], on Human GPR119, the Emax at 0.001 µM is 159% and the Emax at 0.01 µM was 274%. The same molecule showed an inhibition in vivo at 10 mg/kg with C57BL/6 mouse of under 30%.
For the molecule `CC(C)c1nc(-c2c(F)cc(OCCCC3CCN(c4ncc(Cl)cn4)CC3)cc2F)no1` [Example 28, 3-(4-(3-(1-(5-chloropyrimidin-2-yl)piperidin-4-yl)propoxy)-2,6-difluorophenyl)-5-isopropyl-1,2,4-oxadiazole], on Human GPR119, the Emax at 0.001 µM came out at 23.8% and the Emax at 0.01 µM was determined as 115%. The inhibition in vivo at 10 mg/kg in the assay on C57BL/6 mouse was under 30%.
Turning to `CC(C)c1nc(-c2c(F)cc(OCCCC3CCN(c4ccc(C(F)(F)F)cn4)CC3)cc2F)no1` [Example 38, 3-(2,6-difluoro-4-(3-(1-(5-(trifluoromethyl)pyridin-2-yl)piperidin-4-yl)propoxy)phenyl)-5-isopropyl-1,2,4-oxadiazole], on Human GPR119, the Emax at 0.001 µM is 102% and the Emax at 0.01 µM is 120%. In the assay with C57BL/6 mouse, this molecule displayed an inhibition in vivo at 10 mg/kg of under 30%.
The like results for `CC(C)c1noc(N2CCC(CCCOc3cc(F)c(-c4noc(C(C)C)n4)c(F)c3)CC2)n1` [Example 40, 3-(2,6-difluoro-4-(3-(1-(3-isopropyl-1,2,4-oxadiazol-5-yl)piperidin-4-yl)propoxy)phenyl)-5-isopropyl-1,2,4-oxadiazole] were, in that order, 63.7%, 206% and 30 to 40%.
Turning to `CCc1cnc(N2CCC(CCCOc3cc(F)c(-c4nnc(C)o4)c(F)c3)CC2)nc1` [Example 42, 2-(4-(3-(1-(5-ethylpyrimidin-2-yl)piperidin-4-yl)propoxy)-2,6-difluorophenyl)-5-methyl-1,3,4-oxadiazole], at Human GPR119, the Emax at 0.001 µM was 127% and the Emax at 0.01 µM amounted to 150%. The molecule also returned an inhibition in vivo at 10 mg/kg in the assay with C57BL/6 mouse of over 40%.
The like results for `CCc1cnc(N2CCC(CCCOc3cc(F)c(-c4nnc(CC)o4)c(F)c3)CC2)nc1` [Example 43, 2-ethyl-5-(4-(3-(1-(5-ethylpyrimidin-2-yl)piperidin-4-yl)propoxy)-2,6-difluorophenyl)-1,3,4-oxadiazole] were, in that order, 260%, 538% and over 40%.
As to `Cc1nnc(-c2c(F)cc(OCCCC3CCN(c4ncc(C(F)(F)F)cn4)CC3)cc2F)o1` [Example 46, 2-(2,6-difluoro-4-(3-(1-(5-(trifluoromethyl)pyrimidin-2-yl)piperidin-4-yl)propoxy)phenyl)-5-methyl-1,3,4-oxadiazole], on Human GPR119, the Emax at 0.001 µM turned out to be 209% and the Emax at 0.01 µM was found to be 239%. Also, in the assay on C57BL/6 mouse, the inhibition in vivo at 10 mg/kg is over 40%.
With `CCc1nnc(-c2c(F)cc(OCCCC3CCN(c4ncc(C(F)(F)F)cn4)CC3)cc2F)o1` [Example 47, 2-(2,6-difluoro-4-(3-(1-(5-(trifluoromethyl)pyrimidin-2-yl)piperidin-4-yl)propoxy)phenyl)-5-ethyl-1,3,4-oxadiazole], at Human GPR119, the Emax at 0.001 µM is 66% and the Emax at 0.01 µM amounted to 218%. The molecule also displayed an inhibition in vivo at 10 mg/kg with C57BL/6 mouse of over 40%.
For `CC(C)c1nnc(-c2c(F)cc(OCCCC3CCN(c4cnc(Cl)cn4)CC3)cc2F)o1` [Example 51, 2-(4-(3-(1-(5-chloropyrazin-2-yl)piperidin-4-yl)propoxy)-2,6-difluorophenyl)-5-isopropyl-1,3,4-oxadiazole], at Human GPR119, the Emax at 0.001 µM came to 90.7% and the Emax at 0.01 µM came to 180%. In the assay on C57BL/6 mouse, this molecule came in with an inhibition in vivo at 10 mg/kg of over 40%.
In the case of `Cc1nnc(-c2c(F)cc(OCCCC3CCN(c4nc(C(C)C)no4)CC3)cc2F)o1` [Example 55, 5-(4-(3-(3,5-difluoro-4-(5-methyl-1,3,4-oxadiazol-2-yl)phenoxy)propyl)piperidin-1-yl)-3-isopropyl-1,2,4-oxadiazole], on Human GPR119, the Emax at 0.001 µM was 168% and the Emax at 0.01 µM worked out at 266%. Further, the inhibition in vivo at 10 mg/kg with C57BL/6 mouse lay within 30 to 40%.
The like results for `CC(C)c1noc(N2CCC(CCCOc3cc(F)c(-c4nnc(C(C)C)o4)c(F)c3)CC2)n1` [Example 57, 5-(4-(3-(3,5-difluoro-4-(5-isopropyl-1,3,4-oxadiazol-2-yl)phenoxy)propyl)piperidin-1-yl)-3-isopropyl-1,2,4-oxadiazole] were, in that order, 255%, 395% and 30 to 40%.

The inhibition in vivo is the relative decrease from the control value, in per cent. Low readings indicate a response near the control, high ones a response far below the control.
